Tests used:
clinical = conditions: human, in vivo, 300 mg
Text: This study included nine patients in a three-sequence regimen altering fed state and formulation.
Aside from differences in a few selected time points, PK data collection procedures and analyses are similar to example 2.

plasma 24HC [1] = test: Single dose pharmacodynamics: plasma 24HC; assay type: in vivo, human
Method: The concentration of 24HC was measured by obtaining an 8 ml blood sample collected 30 minutes pre-dose time and 0.5, 1, 2, 4, 6, 8, 12, and 16 hours prior to dosing day, and then 30 minutes pre-dose time and at times 0.5, 1, 2, 4, 6, 8, 12, 16, 24, 48, 72, and 96 hours post-dose. Plasma 24HC levels were measured by incubating plasma in sodium hydroxide and methanol and then performing liquid-liquid extraction and HPLC-MS/MS multiple reaction monitoring. […] Assay quality control measures, parameter analyses, and statistical analyses were performed as described in example 3. […] All dosage groups returned to 24HC baseline values by 96 hours.

[2] = Multiple rising dose study: PK of soticlestat and M-I (day 1, day 14), oral solution; assay type: in vivo, human; conditions: for AUC24 mean / AUC∞, mean / Cmax, mean / Tmax, median: soticlestat plasma; for CLR, mean: soticlestat urine
Text: The second trial was a phase I, randomized, double-blind, placebo-controlled study, with soticlestat administered by oral solution at multiple escalating doses in healthy subjects. The criteria for subject inclusion and exclusion are similar to those of the first trial described above but with the added screening of female subjects for pregnancy. […] After a cohort finished their dosage regimen, a decision was made whether to escalate the dosage for the next cohort. Cohorts 1, 2, and 3 received 100, 300, and 400 mg once daily (QD), respectively, and cohorts 4 and 5 received 300 mg twice daily (BID) or 600 mg QD. The regimen for cohorts 4 and 5 were discontinued after subjects began experiencing adverse neurological and psychiatric events. Example 6 describes the PK protocol and the results.
The blood sampling protocol included obtaining a 4-ml blood sample for PK analysis 30 minutes pre-dose, and at 10, 15, 20, and 30 minutes and 1, 1.5, 2, 3, 4, 6, 8, 10, 12, 16, and 24 hours post-dose on days 1 and 14. Cohort 3, receiving 400 mg QD, had additional blood samples taken on day 7 at 15 and 30 minutes, and 1, 2, 4, and 8 hours post-dose. […] The median time for Cmax (Tmax) across the dose range varied between 0.33-0.5 hours. […] The 24 hour plasma area under the concentration-time curve (AUC24) for doses 100, 300, and 400 mg at day 14 were 458, 2690, and 2800 ng×h/mL, respectively. The concentration time profiles were similar from day 1 through day 14.
This study administered soticlestat to healthy male and female adults in an oral solution at escalating daily dose levels. […] Eight subjects were randomly assigned to one of five cohorts, with two subjects in each cohort receiving a placebo. Single daily dosing occurred in the morning after a minimum fast of 8 hours and subjects continued fasting until 2 hours post-dose. […] After a full review of the safety data from cohorts 1 and 2, including vitals, physical examination, BMI, adverse events, and clinical laboratory tests, […] were approved to receive increased dosages of 300 mg twice daily (BID) and 600 mg once daily (QD), respectively.
All cohorts had additional blood samples taken 30 minutes pre-dose on days 7, 11, 12, and 13. […] had additional blood samples taken for PK data on day 7 at post-dose times 15 and 30 minutes, and 1, 2, 4, and 8 hours. The PK parameter analysis was performed as described in example 2. […] A power model estimated the dose proportionality for Cmax and AUC∞ on day 1 and day 14 for cohorts receiving once daily dosing. An analysis of variance (ANOVA) assessed the variation in time dependency for Cmax and AUC∞ on day 1 and day 14 for cohorts receiving once daily dosing.
Pre-dose urine samples were collected for PK analysis for 12 hours pre-dose of day 1 and for 2 hours pre-dose of day 14. Post-dose urine samples were collected at intervals of 0-6, 6-12, and 12-24 hours.

plasma 24HC [3] = test: Adult DEE patients: pharmacodynamics, plasma 24HC; assay type: in vivo, human; conditions: for mean plasma 24HC decrease from baseline: Part A
Method: Blood sample collection and analyses for measuring 24HC was performed as previously described in example 5.

[4] = Healthy Japanese subjects: safety and tolerability; assay type: in vivo, human
Text: Primary Objective: To evaluate the safety and tolerability of TAK-935 in healthy Japanese subjects when administered as single oral dose or multiple oral doses with titration. Secondary Objective: To evaluate the PK of TAK-935 in healthy Japanese subjects when administered as single oral dose or multiple oral doses with titration.
This study consisted of 2 parts, and was a randomized, double-blind, placebo-controlled study to assess safety, tolerability, and PK and PD of TAK-935 when administered orally in healthy Japanese subjects.
The primary endpoint of the study included: Safety endpoint: Percentage of subjects who experience at least 1 TEAE Secondary endpoints included:
• Laboratory tests. • Vital signs. • ECG parameters.

[5] = multiple doses 100-300 mg BID, TAK-935 group

O=C(c1cccnc1-c1ccncc1)N1CCC(O)(Cc2ccccc2)CC1 [soticlestat]
AUC∞ lower, tablet fed than fasting (clinical): 10.6% | Tmax (clinical): 31.8 min | mean Cmax decrease, tablet fed compared to fasted (clinical): 59.7% | AUC∞ lower with tablet compared with oral solution (clinical; po): 15.8% | Cmax lower with tablet compared with oral solution (clinical; po): 36.9% | Tmax (clinical; po): 21 min | maximum 24HC decrease (plasma 24HC [1]; 900 mg single dose, 16 hours post-dose): approximately 23% | AUEC96 decrease compared to placebo (plasma 24HC [1]; single dose): approximately 28.7% | accumulated exposure, AUC24 day 14 ([2]; both, human, in vivo, 300 mg): ~1.42 fold | accumulated exposure, Cmax day 14 ([2]; both, human, in vivo, 300 mg, 14 days): approximately 1.74 fold | t½z, mean ([2]; both, human, in vivo, 600 mg): 290 min | CL/F, mean ([2]; human, in vivo, 600 mg): 194 L/h | AUC24 mean ([2]; 100 mg QD day 1): 446 ng·h/mL | AUC∞, mean ([2]; 100 mg QD day 1): 451 ng·h/mL | Cmax, mean ([2]; 100 mg QD day 1): 468 ng/mL | Tmax, median ([2]; 100 mg QD day 1): 25.2 min | AUC24 mean ([2]; 100 mg QD day 14): 458 ng·h/mL | AUC∞, mean ([2]; 100 mg QD day 14): 509 ng·h/mL | Cmax, mean ([2]; 100 mg QD day 14): 481 ng/mL | Tmax, median ([2]; 100 mg QD day 14): 25.2 min | AUC24 mean ([2]; 300 mg BID day 1 (first dose)): 1460 ng·h/mL | AUC∞, mean ([2]; 300 mg BID day 1 (first dose)): 1510 ng·h/mL | Cmax, mean ([2]; 300 mg BID day 1 (first dose)): 1330 ng/mL | Tmax, median ([2]; 300 mg BID day 1 (first dose)): 26.4 min | AUC24 mean ([2]; 300 mg QD day 1): 2030 ng·h/mL | AUC∞, mean ([2]; 300 mg QD day 1): 2040 ng·h/mL | Cmax, mean ([2]; 300 mg QD day 1): 2020 ng/mL | Tmax, median ([2]; 300 mg QD day 1): 25.2 min | AUC24 mean ([2]; 300 mg QD day 14): 2690 ng·h/mL | AUC∞, mean ([2]; 300 mg QD day 14): 2840 ng·h/mL | Cmax, mean ([2]; 300 mg QD day 14): 3100 ng/mL | Tmax, median ([2]; 300 mg QD day 14): 19.8 min | AUC24 mean ([2]; 400 mg QD day 1): 2500 ng·h/mL | AUC∞, mean ([2]; 400 mg QD day 1): 2520 ng·h/mL | Cmax, mean ([2]; 400 mg QD day 1): 2630 ng/mL | Tmax, median ([2]; 400 mg QD day 1): 19.8 min | AUC24 mean ([2]; 400 mg QD day 14): 2800 ng·h/mL | AUC∞, mean ([2]; 400 mg QD day 14): 3090 ng·h/mL | Cmax, mean ([2]; 400 mg QD day 14): 2930 ng/mL | Tmax, median ([2]; 400 mg QD day 14): 19.8 min | AUC24 mean ([2]; 600 mg QD day 1): 4180 ng·h/mL | AUC∞, mean ([2]; 600 mg QD day 1): 4220 ng·h/mL | Cmax, mean ([2]; 600 mg QD day 1): 3060 ng/mL | Tmax, median ([2]; 600 mg QD day 1): 30 min | CLR, mean ([2]; 100 mg QD day 1): 0.220 L/h | CLR, mean ([2]; 100 mg QD day 14): 0.200 L/h | CLR, mean ([2]; 300 mg BID day 1): 0.350 L/h | CLR, mean ([2]; 300 mg QD day 1): 0.300 L/h | CLR, mean ([2]; 300 mg QD day 14): 0.220 L/h | CLR, mean ([2]; 400 mg QD day 1): 0.370 L/h | CLR, mean ([2]; 400 mg QD day 14): 0.380 L/h | CLR, mean ([2]; 600 mg QD day 1): 0.340 L/h | mean plasma 24HC decrease from baseline (plasma 24HC [3]; day 11): 69.76% | mean plasma 24HC decrease from baseline (plasma 24HC [3]; day 21): 76.88% | plasma 24HC mean percent change from baseline (plasma 24HC [3]; day 11): −69.76% | plasma 24HC mean percent change from baseline (plasma 24HC [3]; day 21): −76.88% | plasma 24HC mean percent change from baseline (plasma 24HC [3]; day 85): −80.97% | mean percent decrease of plasma 24HC (plasma 24HC [3]; end of Part B (day 85)): 80.97% | deaths, SAEs, TEAEs leading to discontinuation ([4]; healthy Japanese subjects): No deaths, SAEs, or TEAEs leading to study drug discontinuation | intensity of TEAEs ([4]; healthy Japanese subjects): All of the TEAEs were mild | subjects who experienced TEAEs [4, 5]: 5 subjects | subjects with drug-related TEAEs [4, 5]: 3 subjects | tolerability ([4]; single dose up to 1200 mg and multiple doses 100 to 300 mg BID): well tolerated
